{"source": "patent US20230295259A1", "about": "(Protagonist Therapeutics, Inc., priority 2020, published 2023)", "note": "Starred links: 1 amine or outer side, 2 acyl side, 3 side chain; linkers in the order of their positions; H or OH if unused. Positions of bridges follow the written chain, without caps; N, C: chain ends. Non-standard residues stand in square brackets, D forms with d. Residues, ends and D or L forms follow the SMILES beside them. Groups on a side chain read outwards from the residue. ξ: configuration not given here. *: point of attachment. PEG12 = NCCOCCOCCOCCOCCOCCOCCOCCOCCOCCOCCOCCOCCC(=O)O; X11 = NCCCC[C@@H](N[*:2])C(=O)C[C@@H](CS[*:1])C(N)=O; C18 diacid = O=C(O)CCCCCCCCCCCCCCCCC(=O)*; Dip = N[C@H](C(=O)O)C(c1ccccc1)c1ccccc1; X10 = CCC(=O)CC[C@H](N[*:1])C(=O)[*:2]; γGlu = O=C(O)[C@H](CCC(=O)[*:2])N[*:1]; X9 = O=C([C@@H](N[*:1])SC[*:3])[*:2]; Palmitoyl = CCCCCCCCCCCCCCCC(=O)*; β3hF = N[C@H](CC(=O)O)Cc1ccccc1; Aic = NC1(C(=O)O)Cc2ccccc2C1; hLeu = CC(C)CC[C@H](N)C(=O)O; ξIle = CC[C@H](C)C(N)C(=O)O; Isovaleryl = CC(C)CC(=O)*; Dap = NC[C@H](N)C(=O)O; AEEA = NCCOCCOCC(=O)O"}
{"biological_target": "T1, ferroportin endogenously expressed on T47D human breast carcinoma cells (human, UniProt Q9NP59 1-571)", "T1 sequence (looked up)": "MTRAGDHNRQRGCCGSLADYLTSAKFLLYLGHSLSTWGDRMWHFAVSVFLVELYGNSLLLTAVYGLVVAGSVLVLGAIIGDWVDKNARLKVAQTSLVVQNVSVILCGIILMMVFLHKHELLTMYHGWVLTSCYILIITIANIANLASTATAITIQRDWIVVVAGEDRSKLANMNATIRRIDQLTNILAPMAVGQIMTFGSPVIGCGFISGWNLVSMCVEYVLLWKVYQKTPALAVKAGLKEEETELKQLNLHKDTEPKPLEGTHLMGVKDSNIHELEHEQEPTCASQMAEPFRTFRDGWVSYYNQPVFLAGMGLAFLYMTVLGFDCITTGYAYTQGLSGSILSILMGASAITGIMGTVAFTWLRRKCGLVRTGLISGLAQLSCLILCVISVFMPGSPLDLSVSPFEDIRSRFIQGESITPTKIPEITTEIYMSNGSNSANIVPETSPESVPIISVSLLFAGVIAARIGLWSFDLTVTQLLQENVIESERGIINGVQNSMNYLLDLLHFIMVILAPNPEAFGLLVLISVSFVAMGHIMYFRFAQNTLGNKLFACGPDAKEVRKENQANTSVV", "experiment": "cell-based or functional assay", "details": "not given", "units": {"IC50: T47D Internalization MSA": "nM"}}
{"molecule": "Isovaleryl-ETHFPCIK([γGlu-C18 diacid])FEPRSKGCK-NH2 (not fully specified (bridges); cysteine pairing not given here)", "note": "[Compound 222]", "IC50: T47D Internalization MSA": "> 1000"}
{"molecule": "XETHXPCIXXXC (not fully specified; Isovaleric Acid-E-T-H-[Dpa]-P-C-I-[Lys(1PEG2_1PEG2_Ahx_C18_Diacid)]-[bhPhe]-[(D)Lys(PEG7_OMe)]-C-NH2)", "note": "[Compound 256]", "IC50: T47D Internalization MSA": 68.9}
{"molecule": "XETHXXCIXXXC (Isovaleric Acid-E-T-H-[Dpa]-[Npc]-C-I-[Lys(1PEG2_1PEG2_IsoGlu_C18_Diacid)]-[bhPhe]-[(D)Lys]-C-NH2)", "note": "[Compound 272]", "IC50: T47D Internalization MSA": 137}
{"molecule": "XXTHXPCIXXXC (Isovaleric Acid-[Glu_OMe]-T-H-[Dpa]-P-C-I-[Lys(1PEG2_1PEG2_Dap_C18_Diacid)]-[bhPhe]-[(D)Lys]-C-NH2)", "note": "[Compound 279]", "IC50: T47D Internalization MSA": 15.4}
{"molecule": "Isovaleryl-ETH[Dip]PCIK([PEG12-Palmitoyl])[β3hF]K(PEG30K)RC-NH2 (disulfide 6-12 (inferred))", "note": "[Compound 294]", "IC50: T47D Internalization MSA": 7.19}
{"molecule": "Isovaleryl-ETH[Dip]PCIK([PEG12-Palmitoyl])[β3hF]K(PEG40KB)RC-NH2 (disulfide 6-12 (inferred))", "note": "[Compound 295]", "IC50: T47D Internalization MSA": 9.22}
{"biological_target": "T2, human ferroportin (Homo sapiens, UniProt Q9NP59)", "T2 construct": "expressed in transfected cells", "T2 sequence (Q9NP59 1-571)": "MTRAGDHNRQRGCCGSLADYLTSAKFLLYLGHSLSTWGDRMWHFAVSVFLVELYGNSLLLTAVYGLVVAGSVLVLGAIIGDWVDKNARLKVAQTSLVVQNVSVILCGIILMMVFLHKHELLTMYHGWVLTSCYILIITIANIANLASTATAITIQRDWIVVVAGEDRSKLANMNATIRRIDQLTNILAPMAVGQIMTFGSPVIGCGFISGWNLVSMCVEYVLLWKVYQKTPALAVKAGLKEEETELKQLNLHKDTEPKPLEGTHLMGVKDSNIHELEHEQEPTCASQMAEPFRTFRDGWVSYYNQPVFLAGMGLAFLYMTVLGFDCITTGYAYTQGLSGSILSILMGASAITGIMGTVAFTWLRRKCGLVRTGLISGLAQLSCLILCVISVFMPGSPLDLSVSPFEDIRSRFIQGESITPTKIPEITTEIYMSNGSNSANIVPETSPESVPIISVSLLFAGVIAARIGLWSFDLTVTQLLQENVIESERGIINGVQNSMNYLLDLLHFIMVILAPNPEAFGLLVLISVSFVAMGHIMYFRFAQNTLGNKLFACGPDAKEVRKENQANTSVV", "experiment": "FPN activity assay: internalization/degradation of ferroportin-GFP in stably transfected HEK293 cells (decrease in GFP fluorescence)", "assay_type": "cell-based", "details": "Table 2A; HEK293 cells expressing human ferroportin-GFP, at least 18 hours incubation", "protocol": "(§1) Following internalization, the ferroportin protein is degraded.\n(§2) A retro inverse peptide is a peptide with a reversed sequence in all D amino acids. An example is that Hy-Glu-Thr-His-NH2 becomes Hy-DHis-DThr-DGlu-NH2. The EC50 of these reference compounds for ferroportin internalization/degradation was determined according to the FPN activity assay described above. These peptides served as control standards.\n(§3) These values were determined as described herein.", "units": {"EC50": "nM"}}
{"molecule": "Isovaleric Acid-E-T-H-[Dpa]-P-[Cys]-I-[Lys(2Peg20K)]-[bhPhe]-[Lys(2Peg11′_Palm)]-R-[Cys]-NH2 [Compound 50]", "EC50": 3.31}
{"molecule": "Isovaleric Acid-E-T-H-[Dpa]-P-[Cys]-I-[Lys(Ac)]-[bhPhe]-[Lys(2Peg20K)]-R-[Cys]-NH2 [Compound 46]", "EC50": "> 3000"}
{"molecule": "Isovaleric Acid-E-T-H-[Dpa]-P-[Cys]-I-[Lys(2Peg11′_Palm)]-[bhPhe]-[Lys(2Peg20K)]-R-[Cys]-NH2 [Compound 47]", "EC50": 58.2}
{"molecule": "Isovaleric Acid-E-T-H-[Dpa]-P-[Cys]-I-[Lys(Ahx_PEG20K)]-[bhPhe]-R-[Cys]-NH2 [Compound 51]", "EC50": 103}
{"biological_target": "T2, human ferroportin", "experiment": "FPN activity assay: internalization/degradation of ferroportin-GFP in stably transfected HEK293 cells (decrease in GFP fluorescence)", "assay_type": "cell-based", "details": "Table 2B; HEK293 cells expressing human ferroportin-GFP, at least 18 hours incubation", "protocol": "as §1, §2, §3", "units": {"EC50": "nM"}}
{"molecule": "Isovaleric Acid-E-T-H-[Dpa]-P—C—I-[Lys(1PEG2_1PEG2_Ahx_Palm)]-[bhPhe]-[(D)Lys(PEG20K-C—NH2 [Compound 314]", "EC50": 357}
{"molecule": "Isovaleric Acid-E-T-H-[Dpa]-P—C—I-[Lys(PEG40KB)]-[bhPhe]-[Lys(PEG12_Palm)]-R—C—NH2 [Compound 296]", "EC50": 1080}
{"molecule": "Isovaleric Acid-E-T-H-[Dpa]-P—C—I-[Lys(Ahx_Palm)]-[bhPhe]-[(D)Lys(PEG20K)]-C—NH2 [Compound 312]", "EC50": 32.6}
{"molecule": "Isovaleric Acid-E-T-H-[Dpa]-P—C—I-[Lys(PEG12_Palm)]-[bhPhe]-[Lys(PEG40KB)]-R—C—NH2 [Compound 295]", "EC50": 1780}
{"molecule": "Isovaleric Acid-E-T-H-[Dpa]-P—C—I-[Lys(1PEG2_1PEG2_Ahx_C18_Diacid)]-[bhPhe]-[(D)Lys(PEG40KB-C—NH2 [Compound 297]", "EC50": 1360}
{"biological_target": "T2, human ferroportin", "experiment": "FPN activity assay: internalization/degradation of ferroportin-GFP in stably transfected HEK293 cells (decrease in GFP fluorescence)", "assay_type": "cell-based", "details": "Table 2D (Illustrative Monomer Hepcidin Analogues); ferroportin-GFP HEK293 cells; read-out: IC50: FPN internalisation", "protocol": "as §1, §2, §3", "units": {"DC50": "nM"}}
{"molecule": "CC[C@H](C)[C@@H]1NC(=O)[C@@H](NC(=O)[C@@H]2CCCN2C(=O)[C@@H](NC(=O)[C@H](Cc2ccncc2)NC(=O)[C@@H](NC(=O)[C@H](CCC(=O)OC)NC(=O)CC(C)C)[C@@H](C)O)C(c2ccccc2)c2ccccc2)CSSC[C@@H](C(N)=O)NC(=O)[C@@H](CCCCN)NC(=O)C[C@H](Cc2ccccc2)NC(=O)[C@H](CCCCNC(=O)COCCOCCNC(=O)COCCOCCNC(=O)[C@H](CN)NC(=O)CCCCCCCCCCCCCCCCC(=O)O)NC1=O", "note": "[Compound 499]", "DC50": 14.3}
{"molecule": "CCC(=O)CC[C@H](NC(=O)CC(C)C)C(=O)N[C@H](C(=O)N[C@@H](Cc1cnc[nH]1)C(=O)N[C@H](C(=O)N1CCC[C@H]1C(=O)N[C@H]1CSSC[C@@H](C(N)=O)CC(=O)[C@@H](CCCCN)NC(=O)[C@H](CCC(C)C)NC(=O)[C@H](CCCCNC(=O)COCCOCCNC(=O)COCCOCCNC(=O)[C@H](CN)NC(=O)CCCCCCCCCCCCCCCCC(=O)O)NC(=O)[C@H]([C@@H](C)CC)NC1=O)C(c1ccccc1)c1ccccc1)[C@@H](C)O", "note": "[Compound 509] (Isovaleryl-[X10]TH[Dip]PCIK([AEEA-AEEA-Dap-C18 diacid])[hLeu]; linker 6-C via X11)", "DC50": 20.6}
{"molecule": "CC[C@H](C)C1NC(=O)[C@@H](NC(=O)[C@@H]2CCCN2C(=O)[C@@H](NC(=O)[C@H](Cc2cnc[nH]2)NC(=O)[C@@H](NC(=O)[C@H](CCC(=O)OC)NC(=O)CC(C)C)[C@@H](C)O)C(c2ccccc2)c2ccccc2)SCSC[C@@H](C(N)=O)NC(=O)[C@@H](CCCCN)NC(=O)C2(Cc3ccccc3C2)NC(=O)[C@H](CCCCNC(=O)COCCOCCNC(=O)COCCOCCNC(=O)[C@H](CN)NC(=O)CCCCCCCCCCCCCCCCC(=O)O)NC1=O", "note": "(stereo partly shown) [Compound 506] (Isovaleryl-E(OMe)TH[Dip]P[X9][ξIle]K([AEEA-AEEA-Dap-C18 diacid])[Aic][dK]C-NH2; thioether 6-11)", "DC50": 31.3}
{"system": "LAD2 cells", "experiment": "not given", "assay_type": "cell-based, human", "details": "LAD2 mast cells, β-hexosaminidase release, 30 minutes incubation; read-out: EC50: LAD2", "text": "In anaphylactoid reactions, the main mechanism involves the direct stimulation of mast cells or basophils, leading to the release of anaphylactic mediators such as histamine and β-hexosaminidase. A recent study by McNeil et al. (McNeil B D et al., 2015) reported that MrgprX2, a specific membrane receptor on human mast cells, induces anaphylactoid reactions. The LAD2 (Laboratory of Allergic Diseases 2) human mast cell line, derived from human mast cell sarcoma/leukemia (Kirshenbaum et al., 2003), is commonly employed to study anaphylactoid reactions, because its biological properties are identical to those of primary human mast cells, including the overexpression of the MrgprX2 receptor and sensitivity towards degranulating peptides (Kulka et al., 2008). The release of anaphylactic mediators such as f-hexosaminidase, is assessed by fluorometric quantification.\nOn the day of the assay, serial dilutions of compounds were added to LAD2 cells plated at 20000 cells/well in a 96-well plate. After incubation for 30 minutes, the amount of β-hexosaminidase released into the supernatants and in cell lysates was quantified using the fluorogenic substrate 4-methylumbelliferyl-N-acetyl-b-D-glucosaminide. Dose-response curves were generated by plotting the % of β-hexosaminidase release (y-axis) against the concentrations of peptides tested (x-axis). […]. (Table 2D).", "units": {"EC50": "nM"}}
{"molecule": "Isovaleric Acid-E-T-H-[Dpa]-P-[Cys]-I-[Lys(2Peg11′_Palm)]-[bhPhe]-[Lys(2Peg20K)]-R-[Cys]-NH2 [Compound 47]", "EC50": "> 12500"}
